# Source: patent US20240391928A1, “COMPOSITIONS FOR THE TREATMENT OF FOOD AND CHEMICAL ADDICTION AND METHODS OF MAKING AND USING SAME” (Duke University, priority 2021, published 2024)
# Entries after “also recorded” stand apart in the source; their conditions may differ.
# How the values were obtained:
# hGHSR1a^WT-RLucII [1] = target: T1, hGHSR1a^WT-RLucII (Homo sapiens, UniProt Q92847); assay: Bystander BRET internalization (MyrPalm-Venus); assay type: cell-based; settings: over 60 minutes
# T1 construct: expressed in transfected cells; host or cells: HEK293/T, transient
# T1 sequence (Q92847 whole entry): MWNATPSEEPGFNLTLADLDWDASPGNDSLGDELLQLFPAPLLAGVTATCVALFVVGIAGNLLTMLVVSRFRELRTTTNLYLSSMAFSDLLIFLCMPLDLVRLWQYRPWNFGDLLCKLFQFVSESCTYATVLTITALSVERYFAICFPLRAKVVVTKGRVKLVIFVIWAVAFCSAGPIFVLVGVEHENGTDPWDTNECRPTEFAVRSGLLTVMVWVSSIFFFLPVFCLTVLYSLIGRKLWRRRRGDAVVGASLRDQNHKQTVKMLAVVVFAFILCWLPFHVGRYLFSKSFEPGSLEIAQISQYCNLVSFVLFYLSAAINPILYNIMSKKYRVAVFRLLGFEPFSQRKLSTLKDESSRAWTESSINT
# Procedure: (§1) Bystander BRET (bBRET). hGHSR1a^WT-RLucII and plasma membrane marker, MyrPalm^mVenus, or the early endosomal marker, 2×-FYVE^mVenus, was transiently co-transfected in HEK293/T cells at a ratio of 1:5 or 1:12.5, respectively. […] Plates were then read by a Mithras 940 plate reader every 5 minutes over 1 hour (MyrPalm^mVenus) or 2 hours (2×FYVE^mVenus) to determine a BRET ratios. To generate CR curves, the average net BRET over 60 minutes post-treatment was used.
# hGHSR1a^WT-RLucII [2] = target: T1, hGHSR1a^WT-RLucII; assay: Bystander BRET endosomal trafficking (2xFYVE-Venus); assay type: cell-based; settings: 60-minute post-treatment
# Procedure: as §1
# GHSR1a^E197A = target: T2, GHSR1a^E197A (Homo sapiens, UniProt Q92847, E197A); assay: TRUPATH Gαq dissociation at E197A mutant; assay type: cell-based
# T2 construct: expressed in transfected cells; host or cells: HEK293/T
# T2 sequence (Q92847 whole entry E197A): as the sequence (Q92847 whole entry) above, with E197A counted along it
# GHSR1a^P200A = target: T3, GHSR1a^P200A (Homo sapiens, UniProt Q92847, P200A); assay: Gαq dissociation and iCa2+ at P200A mutant; assay type: cell-based
# T3 construct: expressed in transfected cells; host or cells: HEK293/T
# T3 sequence (Q92847 whole entry P200A): as the sequence (Q92847 whole entry) above, with P200A counted along it
# Procedure: For experiments with WT and Gt KO HEK293/S cells, […] of hGHSR1a^WT, 10 μg of miAEQ, and 2.5 μg of pcDNA3.1 was transiently transfected into 10 cm dishes and incubated overnight. […] Twenty-four hours later, experiments proceeded in accordance with the procedures described above. To control for any possible kinetic differences in genetically modified cell lines or GHSR1a variants, the average ligand-induced response over 10 seconds was calculated, then normalized by dividing the L-miAeq by the L-miAeq plus the Lysis-miAeq and normalized to the appropriate control/reference condition.
# mGHSR A199P = target: T4, mGHSR A199P (Mus musculus, UniProt Q99P50, A199P); assay: Gαq dissociation and β-arr2 recruitment at humanized mouse receptor; assay type: cell-based
# T4 construct: expressed in transfected cells
# T4 sequence (Q99P50 whole entry A199P): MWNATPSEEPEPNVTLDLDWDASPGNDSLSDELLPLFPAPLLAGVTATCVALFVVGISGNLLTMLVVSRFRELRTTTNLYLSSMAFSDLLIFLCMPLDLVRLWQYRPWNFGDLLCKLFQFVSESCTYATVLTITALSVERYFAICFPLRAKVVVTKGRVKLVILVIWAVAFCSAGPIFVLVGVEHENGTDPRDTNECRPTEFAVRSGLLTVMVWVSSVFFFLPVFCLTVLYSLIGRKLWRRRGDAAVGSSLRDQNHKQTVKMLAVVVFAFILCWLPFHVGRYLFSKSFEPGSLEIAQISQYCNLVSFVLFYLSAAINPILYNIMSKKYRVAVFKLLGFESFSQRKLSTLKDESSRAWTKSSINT
# Procedure: To assess if N8279 signaling required receptor sites within and/or conformational states are conserved from the mouse receptor to the human receptor, the amino acid sequences for variations within the ECL2 were first determined (FIG. 17A). Mutations were made to human GHSR1a receptor (hGHSR) for W193R and P200A and to mouse GHSR1a receptor (mGHSR) for […]. N8279-stimulated Gαq dissociation (FIG. 17B) and β-arr2 recruitment (FIG. 17C) were evaluated for each hGHSR and mGHSR mutants in comparison to endogenous (WT) receptors.
# DAT knockout (KO) mice = assay: Spontaneous hyperlocomotion in DAT KO mice (open field); assay type: in vivo, mouse; settings: 2.5, 5, or 10 mg/kg, IP; 120 minutes
# Procedure: To evaluate the effect of N8279 on DAergic-modulated behavior in vivo, DAT knockout (KO) mice, which have constitutively elevated extracellular DA levels and consequently, spontaneous hyperactivity in a novel, open-field were used. After a 30 minute acclimation period, male and female DAT KO mice were administered vehicle or pharmacologically-relevant, brain penetrant doses of N8279 (FIG. 4A; 2.5, 5, or 10 mg/kg, IP), then were returned to the open-field and locomotion measured for 120 minutes.
# Novelty-induced locomotor activity in DAT KO and inbred C57BL/6J mice. Open-field locomotor activity in mice was performed similar to that described in Barak et al., ACS Chem Biol. (2016)11(7):1880-90, the disclosure of which is incorporated herein in its entirety. In brief, Age- and sex-matched, littermate DAT KO and inbred C57BL/6J mice between 2-6 months of age were used to measure locomotor activity in an Omnitech Digiscan activity monitor (20×20 cm2; Accuscan Instruments, Columbus, OH). Locomotor activity was measured at 5 minutes intervals. To evaluate the effects of compounds on locomotor behavior, the mice were placed in an activity monitor for a 20-minute habituation period, and afterwards injected with drug or vehicle, returned to the monitor, and locomotor activity was recorded over a period of 90 minutes.
# C57BL/6J mice = assay: Novelty-induced open-field locomotion in WT mice; assay type: in vivo, mouse; settings: 2.5, 5, 10 mg/kg IP
# Procedure: N=14-17 mice per treatment group.
# Novelty-induced locomotor activity in DAT KO and inbred C57BL/6J mice. Open-field locomotor activity in mice was performed similar to that described in Barak et al., ACS Chem Biol. (2016)11(7):1880-90, the disclosure of which is incorporated herein in its entirety. In brief, Age- and sex-matched, littermate DAT KO and inbred C57BL/6J mice between 2-6 months of age were used to measure locomotor activity in an Omnitech Digiscan activity monitor (20×20 cm2; Accuscan Instruments, Columbus, OH). Locomotor activity was measured at 5 minutes intervals.
# hGHSR1a^A204E [3] = target: T5, hGHSR1a^A204E (Homo sapiens, UniProt Q92847, A204E)
# T5 sequence (Q92847 whole entry A204E): as the sequence (Q92847 whole entry) above, with A204E counted along it
# T5 sequence (P32121 whole entry partner): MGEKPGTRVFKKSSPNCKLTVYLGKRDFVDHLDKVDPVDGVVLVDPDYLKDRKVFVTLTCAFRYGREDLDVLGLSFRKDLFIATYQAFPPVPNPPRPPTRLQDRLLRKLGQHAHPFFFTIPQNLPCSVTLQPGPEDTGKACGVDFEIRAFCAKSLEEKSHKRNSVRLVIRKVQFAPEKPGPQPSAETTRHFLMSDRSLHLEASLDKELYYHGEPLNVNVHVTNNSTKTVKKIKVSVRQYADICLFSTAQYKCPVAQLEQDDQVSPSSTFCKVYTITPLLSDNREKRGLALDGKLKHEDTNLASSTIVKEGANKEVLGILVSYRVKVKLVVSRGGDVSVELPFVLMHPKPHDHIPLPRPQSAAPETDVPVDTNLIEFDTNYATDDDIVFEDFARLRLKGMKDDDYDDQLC
# Procedure: (§2) β-arr2 recruitment: In agonist and antagonist assays of NanoBiT-based β-arr2 recruitment, hGHSR1a^WT-Lg^BiT and ^SmBiT-β^WT were transiently co-transfected at a 1:1 ratio (250 μg each) into monolayers of HEK293/T cells on 6-well plates along with 2 μg of pcDNA3.1. For assays employing the Ala204Glu variant, hGHSR1a^A204E-Lg^BiT was transfected at 2×hGHSR1a^WT-Lg^BiT, as performed for iCa^2+ assays with hGHSR1a^A204E described above. For GHSR1a-β-arr2 saturation assays, a fixed amount of hGHSR1a^WT-Lg^BiT cDNA (250 μg) was transfected with 0, 62.5 (1:0.25), 125 (1:0.5), 250 (1:1), 500 (1:2), or 1000 (1:4) μg of ^SmBiTβ-arr^WT. The morning after transfection, media was exchanged and after 4-6 hours, cells were then plated on white 96-well, clear-bottomed assay plates at a density of 45,000 cells/well in opti-MEM supplemented with 2% FBS and antibiotic/antimycotic. The following morning, opti-MEM was removed and cells were incubated with 70-80 μL HBSS supplemented with 20 mM HEPES (pH 7.4) for 4 hours. Cells were then treated with 10 μL of coelenterazine H (5 μM final) for 15-20 minutes at room temperature. Cells were then stimulated with 10 μL of test compounds and 2 minutes later, luminescence was measured over 5 minutes, which encompassed the peak β-arr2 recruitment signal.
# GHSR1a = GHSR1a (Homo sapiens, UniProt Q92847); assay: PRESTO-Tango GPCRome β-arr2 recruitment screen; assay type: cell-based; design: expressed in transfected cells; settings: N8279 1 μM
# GHSR1a, sequence (Q92847 whole entry): as the sequence (Q92847 whole entry) above
# Procedure: Hits were defined as >3-fold activation above baseline. […] The assay quality was assessed by plotting duplicate, independent trial averages (derived from 4 independent wells) for each receptor as a point (X,Y). The corresponding plot of points for an ideal assay were fit by a regression line with the slope=1.
# hGHSR1a^A204E [4] = target: T5, hGHSR1a^A204E; assay: NanoBiT β-arr2 recruitment at A204E variant; settings: did not reach saturation
# Procedure: as §2
# hGHSR1a^WT = hGHSR1a^WT (Homo sapiens, UniProt Q92847); settings: 100 nM, 45 minutes
# hGHSR1a^WT, sequence (Q92847 whole entry): as above
# Procedure: U2OS cells stably expressing the human GHSR1a^WT and β-arr2^GFP were seeded onto 35 mm MatTek (Ashland, MA, USA) glass coverslip dishes in opti-MEM supplemented with 2% FBS and antibiotic-antimycotic and grown overnight in a humified incubator (5% CO2, 37° C.). The next morning, media was aspirated and replaced with fresh, serum-free opti-MEM (supplemented with antibiotic-antimycotic). […] Next, treatment was terminated by aspiration of media, a PBS wash, and fixation with 4% paraformaldehyde (20 minutes, room temperature (RT)). Fixed cells were either stored at 4° C. or immediately imaged for β-arr2^GFP translocation with a Zeiss LSM 510 meta confocal microscopy.
smiles,measurement,setting,value
"COc1ccc(C(=O)c2c(C(=O)NCCCN(C)C)oc3ccc(Cl)cc3c2=O)cc1OC [Example N8279, 6-Chloro-3-(3,4-dimethoxybenzoyl)-N-(3-(dimethylamino)propyl)-4-oxo-4H-chromene-2-carboxamide]",internalization efficacy attenuation relative to ghrelin (bBRET MyrPalm),hGHSR1a^WT-RLucII [1],~20%
same,internalization potency reduction relative to ghrelin (bBRET MyrPalm),hGHSR1a^WT-RLucII [1],32 fold
same,"endosomal transit, fold less potent than ghrelin (bBRET 2xFYVE)",hGHSR1a^WT-RLucII [2],32 fold
same,"endosomal transit, less efficacious than ghrelin (bBRET 2xFYVE)",hGHSR1a^WT-RLucII [2],~35%
same,Gαq dissociation potency reduction at GHSR1a^E197A,GHSR1a^E197A,~10 fold
same,potency and Emax at GHSR1a^P200A in words,GHSR1a^P200A,reduced dramatically
same,signaling at humanized mGHSR in words,mGHSR A199P,rescues
same,hyperlocomotion in DAT KO mice in words,DAT knockout (KO) mice,reduced locomotion; also recorded: reduced overall hyperlocomotion
same,novelty-induced open-field locomotion in words,C57BL/6J mice,No statistically significant differences; also recorded: did not affect
same,Emax,hGHSR1a^A204E [3],~35%
same,activation above baseline at GHSR1a,GHSR1a,6 fold
same,β-arr2 recruitment potency reduction at GHSR1a^A204E vs WT,hGHSR1a^A204E [4],> 20 fold
same,β-arr2^GFP translocation in words,hGHSR1a^WT,minimal response
